One test deals with AsPC-1 cells. Kind of test: AsPC-1 cell proliferation assay (CellTiter Glo). Conditions: Homo sapiens, ASPC1, 144 h, 6 days. It counts as cell-based. An outline of the steps:
(§1)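 Read-outs were KRAS G12D immunofluorescence against β-actin after 24 h (DC50) and CellTiter Glo luminescence after 6 days (IC50). Compounds were titrated 1:3 from […] to 1.5 nM final on AsPC-1 cells at 37 °C, 5% CO2.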
A general note: Cellular ATP, detected with luciferase, serves as a proxy for viable cell number.

Another test addresses T1, KRAS (G12D) (Homo sapiens, UniProt P01116, G12D).
T1 construct: in-cell western with KRAS G12D antibody after 24 h
Kind of test: KRAS (G12D) cellular degradation assay in AsPC-1 cells. It counts as cell-based. Conditions: 24 hours, antibody fluorescence (Odyssey CLX), DC50 half-maximal degradation concentration. The procedure, abridged: as §1

Bounds are passed on as bounds.

T1 sequence (P01116 1-188 isoform P01116-2 G12D): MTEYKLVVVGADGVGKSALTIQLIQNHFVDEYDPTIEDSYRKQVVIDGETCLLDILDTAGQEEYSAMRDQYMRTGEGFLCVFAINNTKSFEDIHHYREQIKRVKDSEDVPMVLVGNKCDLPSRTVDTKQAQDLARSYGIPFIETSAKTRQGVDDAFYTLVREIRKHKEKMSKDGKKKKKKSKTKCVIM

The term IC50 denotes the concentration that gives 50% inhibition. A lower IC50 goes with greater potency. The DC50 is the midpoint of the concentration-degradation curve. Low values mean degradation at low concentration, high ones degradation only at high concentration. Consider `CCn1nccc1-c1ccc([C@H](CO)NC(=O)[C@@H]2C[C@@H](O)CN2C(=O)[C@H](C(C)C)n2cc(-c3ccc(COc4c(-c5c(C)c(F)c(C)c6[nH]ncc56)c(C5CC5)cc5c(N6C[C@@H]7C[C@H]6CN7)nc(OC[C@H](C)OC)nc45)cc3)nn2)cc1` [Example 66, (2S,4R)-1-((2S)-2-(4-(4-(((4-((1S,4S)-2,5-diazabicyclo[2.2.1]heptan-2-yl)-6-cyclopropyl-7-(6-fluoro-5,7-dimethyl-1H-indazol-4-yl)-2-((S)-2-methoxypropoxy)quinazolin-8-yl)oxy)methyl)phenyl)-1H-1,2,3-triazol-1-yl)-3-methylbutanoyl)-N—((R)-1-(4-(1-ethyl-1H-pyrazol-5-yl)phenyl)-2-hydroxyethyl)-4-hydroxypyrrolidine-2-carboxamide], for which the IC50 in the test with AsPC-1 cells was < 10 nM. Also, the DC50 at KRAS (G12D) was < 10 nM.

In the test with AsPC-1 cells, `CCn1nccc1-c1cc(F)c([C@@H](NC(=O)[C@@H]2C[C@@H](O)CN2C(=O)[C@H](C(C)C)n2cc(-c3ccc(COc4c(-c5c(C)c(F)cc6[nH]ncc56)c(C5CC5)cc5c(N6C[C@@H]7C[C@H]6CN7)nc(O[C@H]6C[C@H](OC)C6)nc45)cc3)nn2)[C@H](C)O)c(F)c1` [Example 196, (2S,4R)-1-((2S)-2-(4-(4-(((4-((1S,4S)-2,5-diazabicyclo[2.2.1]heptan-2-yl)-6-cyclopropyl-7-(6-fluoro-5-methyl-1H-indazol-4-yl)-2-((1r,3S)-3-methoxycyclobutoxy)quinazolin-8-yl)oxy)methyl)phenyl)-1H-1,2,3-triazol-1-yl)-3-methylbutanoyl)-N-((1R,2S)-1-(4-(1-ethyl-1H-pyrazol-5-yl)-2,6-difluorophenyl)-2-hydroxypropyl)-4-hydroxypyrrolidine-2-carboxamide] returned an IC50 of 10 to 100 nM. The molecule further came in with a DC50 on KRAS (G12D) of 10 to 100 nM.

Take `CCn1nccc1-c1ccc([C@H](CO)NC(=O)[C@@H]2C[C@@H](O)CN2C(=O)[C@H](C(C)C)n2cc(-c3ccc(COc4c(-c5c(C)c(F)cc6[nH]ncc56)c(C5CC5)cc5c(N6C[C@@H]7C[C@H]6CN7)nc(OC6CC7(CCOC7)C6)nc45)cc3)nn2)cc1` (stereo partly drawn) [Example 101, (2S,4R)-1-((2S)-2-(4-(4-(((2-((6-oxaspiro[3.4]octan-2-yl)oxy)-4-((1S,4S)-2,5-diazabicyclo[2.2.1]heptan-2-yl)-6-cyclopropyl-7-(6-fluoro-5-methyl-1H-indazol-4-yl)quinazolin-8-yl)oxy)methyl)phenyl)-1H-1,2,3-triazol-1-yl)-3-methylbutanoyl)-N—((R)-1-(4-(1-ethyl-1H-pyrazol-5-yl)phenyl)-2-hydroxyethyl)-4-hydroxypyrrolidine-2-carboxamide]: the IC50 in the test with AsPC-1 cells was < 10 nM. Also, the half-maximal degradation concentration (DC50) on KRAS (G12D) is < 10 nM.

For the molecule `CO[C@H]1C[C@H](Oc2nc(N(C)[C@@H]3CCNC3)c3cc(C4CC4)c(-c4c(C)c(F)cc5[nH]ncc45)c(OCc4ccc(-c5cn([C@H](C(=O)N6C[C@H](O)C[C@H]6C(=O)N[C@@H](CO)c6ccc(-c7scnc7C)cc6)C(C)C)nn5)cc4)c3n2)C1` [Example 203, (2S,4R)-1-((2S)-2-(4-(4-(((6-cyclopropyl-7-(6-fluoro-5-methyl-1H-indazol-4-yl)-2-((1r,3R)-3-methoxycyclobutoxy)-4-(methyl((R)-pyrrolidin-3-yl)amino)quinazolin-8-yl)oxy)methyl)phenyl)-1H-1,2,3-triazol-1-yl)-3-methylbutanoyl)-4-hydroxy-N—((R)-2-hydroxy-1-(4-(4-methylthiazol-5-yl)phenyl)ethyl)pyrrolidine-2-carboxamide], the half-maximal inhibitory concentration (IC50) in the test with AsPC-1 cells is < 10 nM. Also, the DC50 on KRAS (G12D) was < 10 nM.

With `CCn1nccc1-c1ccc([C@H](CO)NC(=O)[C@@H]2C[C@@H](O)CN2C(=O)[C@H](C(C)C)n2cc(-c3ccc(COc4c(-c5c(C)c(F)cc6[nH]ncc56)c(C5CC5)cc5c(N6C[C@@H]7C[C@H]6CN7)nc(OC6CCC(OC)CC6)nc45)cc3)nn2)cc1` (stereo partly drawn) [Example 70, (2S,4R)-1-((2S)-2-(4-(4-(((4-((1S,4S)-2,5-diazabicyclo[2.2.1]heptan-2-yl)-6-cyclopropyl-7-(6-fluoro-5-methyl-1H-indazol-4-yl)-2-((4-methoxycyclohexyl)oxy)quinazolin-8-yl)oxy)methyl)phenyl)-1H-1,2,3-triazol-1-yl)-3-methylbutanoyl)-N—((R)-1-(4-(1-ethyl-1H-pyrazol-5-yl)phenyl)-2-hydroxyethyl)-4-hydroxypyrrolidine-2-carboxamide], in the test with AsPC-1 cells, the IC50 was < 10 nM. Besides, the DC50 at KRAS (G12D) was < 10 nM.

In the case of `Cc1ncsc1-c1ccc([C@@H](NC(=O)[C@@H]2C[C@@H](O)CN2C(=O)[C@H](C(C)C)n2cc(-c3ccc(COc4c(-c5c(C)c(F)cc6[nH]ncc56)c(C5CC5)cc5c(N6C[C@@H]7C[C@H]6CN7)nc(OC6CC7(COC7)C6)nc45)cc3)nn2)[C@@H](C)O)cc1` [Example 150, (2S,4R)-1-((2S)-2-(4-(4-(((2-((2-oxaspiro[3.3]heptan-6-yl)oxy)-4-((1S,4S)-2,5-diazabicyclo[2.2.1]heptan-2-yl)-6-cyclopropyl-7-(6-fluoro-5-methyl-1H-indazol-4-yl)quinazolin-8-yl)oxy)methyl)phenyl)-1H-1,2,3-triazol-1-yl)-3-methylbutanoyl)-4-hydroxy-N-((1R,2R)-2-hydroxy-1-(4-(4-methylthiazol-5-yl)phenyl)propyl)pyrrolidine-2-carboxamide], in the test with AsPC-1 cells, the IC50 is < 10 nM. The DC50 at KRAS (G12D) is < 10 nM.

For the molecule `CO[C@@H](C)COc1nc(N(C)[C@H]2CCNC2)c2cc(C3CCC3)c(-c3c(C)c(F)cc4[nH]ncc34)c(OCc3ccc(-c4cn([C@H](C(=O)N5C[C@H](O)C[C@H]5C(=O)N[C@H](c5ccc(-c6scnc6C)cc5)C(C)O)C(C)C)nn4)cc3)c2n1` (stereo in doubt) [Example 142, (2S,4R)-1-((2S)-2-(4-(4-(((6-cyclobutyl-7-(6-fluoro-5-methyl-1H-indazol-4-yl)-2-((S)-2-methoxypropoxy)-4-(methyl((S)-pyrrolidin-3-yl)amino)quinazolin-8-yl)oxy)methyl)phenyl)-1H-1,2,3-triazol-1-yl)-3-methylbutanoyl)-4-hydroxy-N-((1R,2R)-2-hydroxy-1-(4-(4-methylthiazol-5-yl)phenyl)propyl)pyrrolidine-2-carboxamide], in the test on AsPC-1 cells, the IC50 was < 10 nM. Further, the DC50 on KRAS (G12D) is < 10 nM.

Regarding `CCn1nccc1-c1ccc([C@@H](NC(=O)[C@@H]2C[C@@H](O)CN2C(=O)[C@H](C(C)C)n2cc(-c3ccc(COc4c(-c5c(C)c(F)c(F)c6[nH]ncc56)c(C5CC5)cc5c(N6C[C@@H]7C[C@H]6CN7)nc(OC[C@H](C)OC)nc45)cc3)nn2)[C@H](C)O)cc1` [Example 89, (2S,4R)-1-((2S)-2-(4-(4-(((4-((1S,4S)-2,5-diazabicyclo[2.2.1]heptan-2-yl)-6-cyclopropyl-7-(6,7-difluoro-5-methyl-1H-indazol-4-yl)-2-((S)-2-methoxypropoxy)quinazolin-8-yl)oxy)methyl)phenyl)-1H-1,2,3-triazol-1-yl)-3-methylbutanoyl)-N-((1R,2S)-1-(4-(1-ethyl-1H-pyrazol-5-yl)phenyl)-2-hydroxypropyl)-4-hydroxypyrrolidine-2-carboxamide], the IC50 in the test on AsPC-1 cells is < 10 nM. In addition, the DC50 on KRAS (G12D) is < 10 nM.

`CCn1nccc1-c1ccc([C@H](CO)NC(=O)[C@@H]2C[C@@H](O)CN2C(=O)[C@H](C(C)C)n2cc(-c3ccc(COc4c(-c5c(C)c(F)cc6[nH]ncc56)c(C5CC5)cc5c(N6C[C@@H]7C[C@H]6CN7)nc(OCC6(C(F)F)CC6)nc45)cc3)nn2)cc1` [Example 53, (2S,4R)-1-((2S)-2-(4-(4-(((4-((1S,4S)-2,5-diazabicyclo[2.2.1]heptan-2-yl)-6-cyclopropyl-2-((1-(difluoromethyl)cyclopropyl)methoxy)-7-(6-fluoro-5-methyl-1H-indazol-4-yl)quinazolin-8-yl)oxy)methyl)phenyl)-1H-1,2,3-triazol-1-yl)-3-methylbutanoyl)-N—((R)-1-(4-(1-ethyl-1H-pyrazol-5-yl)phenyl)-2-hydroxyethyl)-4-hydroxypyrrolidine-2-carboxamide]: in the test with AsPC-1 cells, the IC50 was < 10 nM. The DC50 at KRAS (G12D) was < 10 nM.

For the molecule `CCn1nccc1-c1ccc([C@H](CO)NC(=O)[C@@H]2C[C@@H](O)CN2C(=O)[C@H](C(C)C)n2cc(-c3ccc(COc4c(-c5c(C)c(F)cc6[nH]ncc56)c(C5CC5)cc5c(N6C[C@@H]7C[C@H]6CN7)nc(O[C@H]6C[C@H](OC)C6)nc45)cc3)nn2)cc1` [Example 74, (2S,4R)-1-((2S)-2-(4-(4-(((4-((1S,4S)-2,5-diazabicyclo[2.2.1]heptan-2-yl)-6-cyclopropyl-7-(6-fluoro-5-methyl-1H-indazol-4-yl)-2-((1r,3S)-3-methoxycyclobutoxy)quinazolin-8-yl)oxy)methyl)phenyl)-1H-1,2,3-triazol-1-yl)-3-methylbutanoyl)-N—((R)-1-(4-(1-ethyl-1H-pyrazol-5-yl)phenyl)-2-hydroxyethyl)-4-hydroxypyrrolidine-2-carboxamide], the IC50 in the test with AsPC-1 cells was < 10 nM. Further, the DC50 at KRAS (G12D) was < 10 nM.

`Cc1ncsc1-c1ccc([C@@H](NC(=O)[C@@H]2C[C@@H](O)CN2C(=O)[C@H](C(C)C)n2cc(-c3ccc(COc4c(-c5c(C)c(F)cc6[nH]ncc56)c(C5CC5)cc5c(N(C)[C@H]6CCNC6)nc(OC[C@H]6CCCO6)nc45)cc3)nn2)[C@H](C)O)cc1` [Example 208, (2S,4R)-1-((2S)-2-(4-(4-(((6-cyclopropyl-7-(6-fluoro-5-methyl-1H-indazol-4-yl)-4-(methyl((S)-pyrrolidin-3-yl)amino)-2-(((R)-tetrahydrofuran-2-yl)methoxy)quinazolin-8-yl)oxy)methyl)phenyl)-1H-1,2,3-triazol-1-yl)-3-methylbutanoyl)-4-hydroxy-N-((1R,2S)-2-hydroxy-1-(4-(4-methylthiazol-5-yl)phenyl)propyl)pyrrolidine-2-carboxamide]: the IC50 in the test on AsPC-1 cells is < 10 nM. The DC50 on KRAS (G12D) is < 10 nM.

The record behind these values is patent publication US20260295053A1, “COMPOUNDS FOR DEGRADATION AND INHIBITION OF KRAS (G12D) PROTEIN” (Shenzhen Ionova Life Science Co., Ltd., priority 2023, published 2026).
